Reference: PubChem BioAssay AID463099 (The Scripps Research Institute Molecular Screening Center, 2010)

System: IMP-1-expressing E. coli growth, with imipenem, MIC
Experiment: MIC in IMP1-transformed E. coli with imipenem – imipenem co-treatment, counter-screen for IMP-1/VIM-2 inhibitor project, late-stage follow-up (AID 463099)

Cc1cc[c]([Hg+])cc1
MIC: 940 nM

CC(=O)Nc1cc[c]([Hg+])cc1
MIC: 2500 nM

[Hg+][c]1ccccc1
MIC: 630 nM

O=C(O)c1ccc[c]([Hg+])c1
MIC: 3750 nM

COc1cccc[c]1[Hg+]
MIC: 1090 nM

O=C(O)c1cc[c]([Hg][Cl])cc1
MIC: 9380 nM
